{
  "source": "patent US9974776B2",
  "about": "“Estrogen receptor beta agonists for use in treating mesothelioma” (Karo Pharma AB, priority 2013, dated 2018)",
  "key": {"MMP cells": {"test_system": "MMP cells", "assay": "Proliferation assay (wash-off experiment) in MMP cells", "format": "cell-based, human", "conditions": "10 nM 2 hours, 50 μM cisplatin 24 hours", "experimental": "(§1) Cells were seeded at a density of 10×10^4 cells/well in 6-well plates in RPMI medium supplemented with 10% FBS, 100 μg/ml streptomycin and 10 μg/ml penicillin and incubated over-night at 37° C. in a humidified environment containing 5% CO2 to allow adherence. Following treatment cells were trypsinized and stained with Trypan blue. The number of cells considered viable (unstained cells) was counted in a Bürker haemocytometer within 5 minutes after staining.\n(§2) Cell cultures were pretreated with Compound (I) for 1-16 hours (depending on experiment) followed by wash-off and then replenished with normal growth medium±cisplatin, pemetrexed or cisplatin/pemetrexed. Total incubation time was 24-72 hours (depending on experiment). Control cultures were maintained in normal growth medium without added drug. The number of viable cells was determined as described for the proliferation assay.\n50 μM cisplatin was added to MMP cell cultures pre-treated for 2 hours with 10 nM Compound (I) (wash-off experiment). The number of viable cells at 24 hours was determined as described for the proliferation assay above. Control cultures were maintained in normal growth medium; growth medium plus Compound (I) (10 nM); and growth medium plus cisplatin (50 μM)."}, "MET5A cells": {"test_system": "MET5A cells", "assay": "Proliferation assay in non-malignant mesothelial MET5A cells", "format": "cell-based", "experimental": "as §1, §2"}, "REN cells": {"test_system": "REN cells", "assay": "Proliferation assay (Trypan blue viable cell count; wash-off and add-on experiments) in REN cells", "format": "cell-based, human", "experimental": "as §1\nControl cultures were maintained in normal growth medium without added drug. The number of viable cells was determined as described for the proliferation assay.\nIn the add-on experiments the second drug was added directly to the cell culture medium without wash-off of the first drug. […] Control cultures were maintained in normal growth medium without added drug. The number of viable cells was determined as described for the proliferation assay."}, "AKT phosphorylation [1]": {"test_system": "AKT phosphorylation", "assay": "Western blot of AKT phosphorylation in MET5A cells", "format": "cell-based", "conditions": "10 nM 2 hours pre-treatment", "experimental": "(§3) Cells were extracted with 1% NP-40 lysis buffer (1% NP-40, 150 mM NaCl, 50 mM Tris-HCl pH 8.5 mM EDTA, 10 mM NaF, 10 mM Na4P2O7, 0.4 mM Na3VO4) with freshly added protease inhibitors (10 μg/ml leupeptin, 4 μg/ml pepstatin and 0.1 Unit/ml aprotinin). For protein extraction from tissues, ˜100 mg of each sample were homogenized, using a Potter-Elvehjem homogenizer device, in 1% NP-40 lysis buffer. Lysates were centrifuged at 13.000×g for 10 minutes at 4° C. and the supernatants were collected and assayed for protein concentration with the Bio-Rad protein assay method.\n(§4) Proteins were separated by SDS-PAGE under reducing conditions. Following SDS-PAGE, proteins were transferred to nitrocellulose, reacted with specific antibodies and then detected with peroxidase-conjugate secondary antibodies and chemioluminescent ECL reagent. Densitometric analysis was performed using the GS 250 Molecular Image (Bio-Rad).\n(§5) Levels of PARP1, cleaved PARP1, AKT and phosphorylated AKT in the MET5A cell cultures at 24 hours were also determined by Western blot analysis and relative densitometry."}, "MSTO-211H cells": {"test_system": "MSTO-211H cells", "assay": "Proliferation assay in ERβ negative MSTO-211H cells", "format": "cell-based", "conditions": "10 nM single agent, 24 and 48 hours", "experimental": "as §1"}, "PARP1 cleavage [2]": {"test_system": "PARP1 cleavage", "assay": "Western blot of PARP1 cleavage in MET5A cells", "format": "cell-based", "conditions": "10 nM 2 hours pre-treatment, cisplatin 25, 50, 100 μM", "experimental": "as §3, §4, §5"}, "AKT phosphorylation [3]": {"test_system": "AKT phosphorylation", "assay": "Western blot of AKT phosphorylation in REN cells", "format": "cell-based, human", "conditions": "10 nM 2 hours pre-treatment, ± cisplatin", "experimental": "as §3, §4\nLevels of PARP1, cleaved PARP1, AKT and phosphorylated AKT in REN cells treated for 24 hours with cisplatin (25, 50 and 100 μM) or pre-treated 2 hours with Compound (I) (10 nM) followed by wash-off and continued growth in normal medium±cisplatin (25, 50 and 100 μM), for an additional 24 hours were also determined by Western blot analysis and relative densitometry. […] PARP1 cleavage was analysed as it is an indicator of apoptotic cell death. […]"}, "PARP1 cleavage [4]": {"test_system": "PARP1 cleavage", "assay": "Western blot of PARP1 cleavage in MMP cells", "format": "cell-based, human", "conditions": "10 nM two hours, wash-off, 50 μM cisplatin", "experimental": "as §3, §4\nLevels of PARP1, cleaved PARP1, AKT and phosphorylated AKT in the MMP cell cultures at 24 hours were also determined by Western blot analysis."}},
  "note": "Entries after “also recorded” stand apart in the source; their conditions may differ.",
  "data": [
    {"smiles": "Cc1noc(C)c1-c1c(/C(N)=N/O)c2ccccc2n1-c1ccc(O)cc1", "note": "[Compound (I)]", "values": [
      {"measurement": "anti-proliferative effect in MMP cells, pre-treatment then cisplatin", "setting": "MMP cells", "result": "enhanced anti-proliferative effect of cisplatin was observed; also recorded: synergistic growth inhibition compared to Compound (I) or cisplatin alone"},
      {"measurement": "effect on cisplatin toxicity in MET5A cells", "setting": "MET5A cells; 10 nM 2 hours pre-treatment, wash-off, cisplatin 25, 50, 100 μM 24 hours", "result": "protective effect was observed when Compound (I) pre-treatment was combined with low doses of cisplatin; also recorded: diminished and/or counteracted the toxicity of cisplatin"},
      {"measurement": "MET5A cell proliferation or viability, alone", "setting": "MET5A cells; 10 nM 2 hours, wash-off, normal medium 24 hours", "result": "no effect on MET5A cell proliferation or viability"},
      {"measurement": "inhibition of proliferation, MET5A cells", "setting": "MET5A cells; 10 nM single agent, 24 and 48 hours, high endogenous ERβ", "result": "no inhibitory effect was observed"},
      {"measurement": "anti-proliferative effect, pre-treatment then 20 μM cisplatin", "setting": "REN cells; 10 nM 2 hours, wash-off, 20 μM cisplatin for additional 24 hours", "result": "as efficacious as 100 μM cisplatin alone"},
      {"measurement": "inhibitory effect on cell growth and viability, pre-treatment then cisplatin/pemetrexed", "setting": "REN cells; 10 nM 2 hours, wash-off, cisplatin 100 μM and pemetrexed 22 μM for additional 24 hours", "result": "strong synergistic inhibitory effect on cell growth and viability"},
      {"measurement": "inhibitory effect on cell growth and viability, pre-treatment then cisplatin", "setting": "REN cells; 10 nM 2 hours, wash-off, cisplatin 100 μM for additional 24 hours", "result": "strong synergistic inhibitory effect on cell growth and viability"},
      {"measurement": "anti-proliferative effect, pre-treatment then cisplatin 20-100 μM", "setting": "REN cells; 10 nM 2 hours, wash-off, cisplatin for additional 24 hours", "result": "most efficacious anti-proliferative effect was observed when Compound (I) pre-treatment was combined with the highest concentration of cisplatin (100 μM)"},
      {"measurement": "enhancement of anti-proliferative effect of pemetrexed", "setting": "REN cells; 10 nM 2 hours, wash-off, pemetrexed 5-22 μM for additional 24 hours", "result": "No enhanced anti-proliferative effect"},
      {"measurement": "synergy when cisplatin is given first (reverse order)", "setting": "REN cells; 10 nM Compound (I) added 2, 4, 8, 12 hours after start of 100 μM cisplatin, 24 hours", "result": "did not result in synergistic inhibition of cell growth and viability"},
      {"measurement": "growth inhibition versus single agents, cisplatin given first", "setting": "REN cells; 10 nM Compound (I) added after 100 μM cisplatin, 24 hours", "result": "greater growth inhibition than cells treated with only one of the agents"},
      {"measurement": "inhibition of proliferation, REN cells", "setting": "REN cells; 10 nM single agent, 24 and 48 hours", "result": "significantly (p≤0.05) inhibited proliferation"},
      {"measurement": "growth inhibitory activity after brief exposure and wash-off", "setting": "REN cells; 10 nM, 2 hours exposure, total incubation 24 hours", "result": "significantly (p≤0.05) increased growth inhibitory activity relative to 1 hour exposure and exposures longer than 8 hours"},
      {"measurement": "enhancement of anti-proliferative effect of cisplatin, add-on experiment", "setting": "REN cells; 100 μM cisplatin added 2, 4, 8, 12 hours after start of 10 nM Compound (I), 24 hours", "result": "greatest inhibitory effect obtained when adding cisplatin after 2 hours of Compound (I) pre-treatment"},
      {"measurement": "concentration dependence of anti-proliferative effect after 2 hours pre-treatment", "setting": "REN cells; 0.4, 2 and 10 nM, wash-off, 24-72 hours", "result": "largest anti-proliferative effect was observed with the highest Compound (I) concentration used"},
      {"measurement": "duration of inhibitory effect on REN cell proliferation", "setting": "REN cells; 2-hours pre-treatment with 0.4, 2 or 10 nM, wash-off, irrespective of concentration", "result": "at least 24 hours"},
      {"measurement": "growth inhibition of REN cells", "setting": "REN cells; 24 hours treatment, range 1-100 nM, versus untreated cells", "result": "significantly (p≤0.05) reduced cell growth and viability in a dose-dependent manner"},
      {"measurement": "dose of highest efficacy for growth inhibition", "setting": "REN cells; REN cells, 24 hours, range 1-100 nM tested", "result": 10, "unit": "nM"},
      {"measurement": "isobologram analysis of combination with cisplatin", "setting": "REN cells; analysis of Example 4(b) results (FIG. 4F)", "result": "synergistic effect"},
      {"measurement": "basal pAKT levels in MET5A control cells", "setting": "AKT phosphorylation [1]; no cisplatin", "result": "no effect on basal pAKT levels"},
      {"measurement": "effect on cisplatin-mediated inhibition of pAKT in MET5A cells", "setting": "AKT phosphorylation [1]; then cisplatin", "result": "antagonized the cisplatin-mediated inhibition of pAKT"},
      {"measurement": "inhibition of proliferation, MSTO-211H cells", "setting": "MSTO-211H cells", "result": "no response"},
      {"measurement": "percentage of cleaved PARP1 in MET5A cells", "setting": "PARP1 cleavage [2]", "result": "reduced the percentage of cleaved PARP1 in cells exposed to all concentrations of cisplatin"},
      {"measurement": "AKT phosphorylation in REN cells", "setting": "AKT phosphorylation [3]", "result": "significantly reduced AKT phosphorylation both in the absence and in the presence of cisplatin"},
      {"measurement": "level of cleaved PARP1 in MMP cells", "setting": "PARP1 cleavage [4]", "result": "most significant increase in the level of cleaved PARP1"}
    ]}
  ]
}
